Data: patent US20250049787A1, “TREATMENT FOR ACUTE MYELOID LEUKEMIA OR LYMPHOMA” (UNIVERSITY HEALTH NETWORK, priority 2021, published 2025)
Structures can show the parent of a compound that is named as a salt.

Experiments:
FLT3 = molecular target: T1, FLT3 (Homo sapiens, UniProt P36888); test: Radiometric HotSpot kinase assay, FLT3; type: biochemical; conditions: ATP 50 μM; peptide substrate 5 μM
T1 construct: purchased Reaction Biology Corp. (Malvern, PA, USA)
Method: (§1) Kinase IC50 values were determined by Reaction Biology Corp. (Malvern, PA, USA) in the Radiometric HotSpot™ Assay using recombinantly expressed kinase enzymes. Compound (I) was tested in a 10-dose IC50 curve in duplicate. Enzymes were tested at the Km [ATP] for each enzyme using the Reaction Biology binning structure. Kinase reactions were initiated by the addition of protein or peptide substrate and [γ-^33P]-adenosine triphosphate (ATP). Phosphorylated substrates were captured by spotting of the reaction mix on filter membranes, and enzymatic activity was quantified by liquid scintillation counting. Substrates and ATP concentrations are as follows: • FLT3: Peptide substrate, [EAIYAAPFAKKK], 5 μM: ATP 50 μM • FLT3-ITD (internal tandem duplication): Peptide substrate, [EAIYAAPFAKKK], 20 μM: ATP, 30 μM • FLT3 (D835Y): Peptide substrate, [EAIYAAPFAKKK], 5 μM: ATP 20 μM • TAK1: Casein, 1 mg/mL: ATP, 20 μM

[1] = molecular target: FLT3-ITD (internal tandem duplication) (Homo sapiens, UniProt P36888); test: Radiometric HotSpot kinase assay, FLT3-ITD; type: biochemical; conditions: ATP 30 μM; peptide substrate 20 μM
Method: as §1

FLT3 (D835Y) = molecular target: T2, FLT3 (D835Y) (Homo sapiens, UniProt P36888, D835Y); test: Radiometric HotSpot kinase assay, FLT3 (D835Y); type: biochemical; conditions: ATP 20 μM; peptide substrate 5 μM
T2 construct: purchased Reaction Biology Corp. (Malvern, PA, USA)
Method: as §1

TAK1/MAP3K7 = molecular target: T3, TAK1/MAP3K7 (Homo sapiens, UniProt O43318); test: Radiometric HotSpot kinase assay, TAK1; type: biochemical; conditions: ATP 20 μM; casein 1 mg/mL
T3 construct: purchased Reaction Biology Corp. (Malvern, PA, USA)
T3 sequence (O43318 1-303 limits assumed): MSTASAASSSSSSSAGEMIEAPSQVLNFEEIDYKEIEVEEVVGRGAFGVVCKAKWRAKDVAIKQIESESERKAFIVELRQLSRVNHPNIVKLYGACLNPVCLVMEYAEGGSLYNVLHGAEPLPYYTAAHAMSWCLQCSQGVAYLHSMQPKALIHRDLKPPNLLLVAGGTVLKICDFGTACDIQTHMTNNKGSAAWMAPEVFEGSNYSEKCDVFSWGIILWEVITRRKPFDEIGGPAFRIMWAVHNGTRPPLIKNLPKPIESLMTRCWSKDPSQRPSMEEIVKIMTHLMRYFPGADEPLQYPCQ
Method: as §1

[2] = test system: FLT3-ITD-expressing 32D cells (20 ng/ml mouse IL-3); test: Growth inhibition, 32D transfectants with mouse IL-3; type: cell-based; conditions: 32D transfectant FLT3-ITD
Method: Cell lines were obtained from American Type Culture Collection (ATCC) and maintained according to the supplier's instructions, and from Dr. Mark Minden (Princess Margaret Cancer Centre, Toronto, Canada). Short tandem repeat (STR) profiling was used to verify authenticity of the cell lines. Peripheral blood from healthy human donors was obtained from the Hematology Malignancy Tissue Bank at the University Health Network. Peripheral blood mononuclear cells (PBMC) were prepared from the blood by density gradient centrifugation using Ficoll-Paque PLUS by manufacturer's instructions (GE Healthcare Life Sciences). […] Compound (I) tartrate was prepared as a 10 mM stock solution in 100% DMSO. The stock solution was diluted with RPMI-1640 (Invitrogen) containing 10% FBS (fetal bovine serum) such that the final concentrations ranged from 300 fM to 300 μM. Aliquots (20 μL) from each concentration were overlaid to 180 μL of pre-seeded cells to achieve final concentrations of 30 fM to 30 μM. After 3 days, cell growth in each well was assessed by Alamar Blue assay reagent (Invitrogen). Raw fluorescence (λEM=590 nm) values were adjusted by subtracting the average of the baseline readings from untreated cells assessed one day after cell seeding. Relative cell growth was calculated by comparing to DMSO-treated cells. […]

[3] = test system: mature 160 kDa form of FLT3-ITD; test: Immunoblot of FLT3 in MV-4-11 cells; type: cell-based, human; conditions: 4 hours, dose-dependent
Method: MV-4-11 cells (FLT3 LOH, FLT3-ITD positive cells) were treated with the indicated concentrations of Compound (I) tartrate for 4 hours at 37° C. and 5% CO2. Lysates were analyzed by immunoblot analysis with antibodies against FLT3 (Cell Signaling Technology, Inc., Cat. #3462), PARP (Cell Signaling Technology, Inc., Cat. #9542) and GAPDH (Millipore, Cat. #MAB374). Protein bands were visualized using a LI-COR Odyssey near infrared imager and representative data are shown. Compound (I) tartrate treatment increases the expression of the mature 160 kDa form of FLT3-ITD in MV-4-11 cells in a dose-dependent manner. Apoptotic cell death as measured by PARP cleavage was induced by Compound (I) tartrate treatment.

FLT3-ITD maturation = FLT3-ITD maturation in MOLM-14 cells; type: cell-based, human; conditions: MOLM-14 cells (co-express FLT3-ITD and wild-type FLT3); data not shown
cell surface FLT3-ITD = test: Flow cytometry, cell surface FLT3 in primary human AML cells; type: cell-based; conditions: FLT3-ITD positive primary AML cells, viable CD14− blasts, 48 and 72 hours, dose-dependent
Method: Patient samples were obtained from Dr. Mark Minden (Princess Margaret Cancer Centre, Toronto, Ontario, Canada). FLT3-ITD positive AML cells were treated with the indicated concentrations of Compound (I) for 48 and 72 hours at 37° C. and 5% CO2 and stained with APC-CD45, PECy7-CD38, APC/Fire 750-CD33, PerCP-CD14, PE-FLT3 (Beckman Coulter, Cat. IM2234U), PE/Dazzle 594-CD117 (BioLegend, Cat. #313226) or isotype control antibodies and analyzed on a BD LSRFortessa II flow cytometry analyzer. Data were analyzed using FlowJo software and representative data are shown. Compound (I) treatment increases the cell surface expression of FLT3 and c-KIT in a dose-dependent manner in viable CD14^− AML blast cells. Similar results were obtained in additional FLT3-ITD positive primary AML samples (data not shown).

**Q.** How did the IC50 (FLT3) turn out when `CN1CCN(c2ccc3nc(-c4c(N)c5ccsc5[nH]c4=O)[nH]c3c2)CC1` [Compound (I) tartrate, 4-amino-5-(6-(4-methylpiperazin-1-yl)-1H-benzo[d]imidazol-2-yl)thieno[2,3-b]pyridin-6(7H)-one] was run?
**A.** The IC50 was 0.043 nM.

**Q.** What about the IC50 [1] of the same molecule?
**A.** The IC50 was 0.13 nM.

**Q.** And the IC50 (FLT3 (D835Y))?
**A.** Its IC50 is 0.023 nM.

**Q.** And the IC50 (TAK1/MAP3K7)?
**A.** Its IC50 is 18 nM.

**Q.** What about the IC50 [2] of the same molecule?
**A.** The IC50 was 1440 nM.

**Q.** What about the “expression of the mature 160 kDa form of FLT3-ITD” value [3] of the same molecule?
**A.** Its value is “increases”.

**Q.** And the FLT3-ITD maturation (FLT3-ITD maturation)?
**A.** The FLT3-ITD maturation was “increase”.

**Q.** What about the “cell surface expression of FLT3” value (cell surface FLT3-ITD) of the same molecule?
**A.** Its value is “increases”.
